Laboratory results taken from ChEMBL document CHEMBL4251606, “Design and characterization of α-lipoic acyl shikonin ester twin drugs as tubulin and PDK1 dual inhibitors” (Eur J Med Chem, 2018).
The source made the active and inactive calls. The calls are words filed in the database; no cut-off is given here.

Legend:
[1] = test system: HeLa; assay: Induction of apoptosis in human HeLa cells assessed as late apoptotic cells by measuring FL3-H+ cells at 0.7 uM after 24 hrs by propidium iodide staining-based FACScan flow cytometric analysis (reference value: 2.14%); assay type: functional
[2] = test system: HepG2; assay: Antiproliferative activity against human HepG2 cells after 24 hrs by MTT assay; assay type: functional, cell-based; conditions: HepG2, 24 h
[3] = test system: HeLa; assay: Induction of apoptosis in human HeLa cells assessed as viable cells at 2 uM after 24 hrs by Annexin V-APC/propidium iodide staining-based FACScan flow cytometric analysis (reference value: 85.1%); assay type: functional; conditions: read-out: Activity
[4] = biological target: [Pyruvate dehydrogenase (acetyl-transferring)] kinase isozyme 1, mitochondrial (Homo sapiens) (UniProt Q15118); assay: Inhibition of PDK1 in human HeLa cells assessed as decrease in PDH-E1 alpha p-ser232 expression up to 8 uM by Western blot analysis; assay type: cell-based
[5] = test system: HeLa; assay: Induction of apoptosis in human HeLa cells assessed as necrotic cells at 2 uM after 24 hrs by Annexin V-APC/propidium iodide staining-based FACScan flow cytometric analysis (reference value: 1.18%); assay type: functional
[6] = test system: HeLa; assay: Antitumor activity against human HeLa cells xenografted in nude mouse assessed as reduction in tumor size at 1 mg/kg, ip administered once in every 2 days for 15 days relative to control; assay type: functional, organism-based
[7] = test system: HeLa; assay: Inhibition of microtubule polymerization in human HeLa cells at 4 uM after 24 hrs by rhodamine/DAPI staining-based confocal microscopic analysis; assay type: cell-based
[8] = test system: HeLa; assay: Induction of apoptosis in human HeLa cells assessed as viable cells at 1 uM after 24 hrs by Annexin V-APC/propidium iodide staining-based FACScan flow cytometric analysis (reference value: 85.1%); assay type: functional; conditions: read-out: Activity
[9] = species on record: Homo sapiens; assay: Inhibition of microtubule polymerization (unknown origin) at 4 uM after 24 hrs by immunoblot
[10] = test system: HeLa; assay: Cell cycle arrest in human HeLa cells assessed as accumulation of cells at G1 phase at 2 uM after 24 hrs by propidium iodide staining-based FACScan flow cytometric analysis (reference value: 62.92%); assay type: functional
[11] = test system: HeLa; assay: Antitumor activity against human HeLa cells xenografted in nude mouse assessed as reduction in tumor volume administered intraperitomeally once in every 2 days for 15 days; assay type: functional
[12] = test system: L02; assay: Antiproliferative activity against human LO2 cells after 24 hrs by MTT assay; assay type: cell-based; conditions: L02, 24 h
[13] = test system: HeLa; assay: Induction of apoptosis in human HeLa cells assessed as late apoptotic cells by measuring FL3-H+ cells at 6 uM after 12 hrs by propidium iodide staining-based FACScan flow cytometric analysis (reference value: 2.13%); assay type: functional
[14] = test system: HeLa; assay: Induction of apoptosis in human HeLa cells assessed as increase in caspase-3 cleavage up to 8 uM after 24 hrs by Western blot analysis; assay type: functional, cell-based
[15] = test system: HeLa; assay: Induction of apoptosis in human HeLa cells assessed as late apoptotic cells by measuring FL3-H+ cells at 6 uM after 36 hrs by propidium iodide staining-based FACScan flow cytometric analysis (reference value: 2.13%); assay type: functional
[16] = test system: HeLa; assay: Induction of apoptosis in human HeLa cells assessed as late apoptotic cells by measuring FL3-H+ cells at 1.4 uM after 24 hrs by propidium iodide staining-based FACScan flow cytometric analysis (reference value: 2.14%); assay type: functional
[17] = test system: HeLa; assay: Cell cycle arrest in human HeLa cells assessed as accumulation of cells at S phase at 4 uM after 24 hrs by propidium iodide staining-based FACScan flow cytometric analysis (reference value: 20.16%); assay type: functional
[18] = test system: HeLa; assay: Induction of apoptosis in human HeLa cells assessed as viable cells at 4 uM after 24 hrs by Annexin V-APC/propidium iodide staining-based FACScan flow cytometric analysis (reference value: 85.1%); assay type: functional; conditions: read-out: Activity
[19] = test system: HeLa; assay: Induction of apoptosis in human HeLa cells assessed as late apoptotic cells at 4 uM after 24 hrs by Annexin V-APC/propidium iodide staining-based FACScan flow cytometric analysis (reference value: 7.22%); assay type: functional
[20] = test system: HeLa; assay: Induction of apoptosis in human HeLa cells assessed as early apoptotic cells at 6 uM after 24 hrs by Annexin V-APC/propidium iodide staining-based FACScan flow cytometric analysis (reference value: 2.45%); assay type: functional
[21] = biological target: [Pyruvate dehydrogenase (acetyl-transferring)] kinase isozyme 1, mitochondrial (Homo sapiens) (UniProt Q15118); assay: Inhibition of PDK1 in human HeLa cells assessed as increase in PDH-E1 alpha expression up to 8 uM by Western blot analysis; assay type: cell-based
[22] = test system: HeLa; assay: Antitumor activity against human HeLa cells xenografted in nude mouse assessed as reduction in tumor size at 2 mg/kg, ip administered once in every 2 days for 15 days relative to control; assay type: functional
[23] = biological target: [Pyruvate dehydrogenase (acetyl-transferring)] kinase isozyme 1, mitochondrial (Homo sapiens) (UniProt Q15118); assay: Inhibition of PDK1 in human HeLa cells assessed as decrease in PDH-E1 alpha p-ser232 expression at 6 uM by Western blot analysis; assay type: cell-based
[24] = test system: HeLa; assay: Induction of mitochondrial membrane potential loss in human HeLa cells assessed as cells with high membrane potential at 2 uM after 12 hrs by JC-1 staining-based flow cytometric analysis (reference value: 85.8%); assay type: functional
[25] = test system: HeLa; assay: Cell cycle arrest in human HeLa cells assessed as accumulation of cells at G1 phase at 4 uM after 24 hrs by propidium iodide staining-based FACScan flow cytometric analysis (reference value: 62.92%); assay type: functional
[26] = test system: HeLa; assay: Induction of apoptosis in human HeLa cells assessed as early apoptotic cells at 6 uM after 36 hrs by Annexin V-APC/propidium iodide staining-based FACScan flow cytometric analysis (reference value: 2.45%); assay type: functional
[27] = test system: HeLa; assay: Reduction in lactate production in human HeLa cells at 2 to 8 uM; assay type: functional, cell-based
[28] = test system: HeLa; assay: Induction of apoptosis in human HeLa cells assessed as late apoptotic cells by measuring FL3-H+ cells at 2 uM after 12 hrs by propidium iodide staining-based flow cytometric analysis (reference value: 3.66%); assay type: functional
[29] = test system: Mus musculus; assay: Toxicity in nude mouse xenografted with human HeLa cells assessed as loss in body weight at 0.5 to 2 mg/kg, ip administered once in every 2 days for 15 days; assay type: organism-based; conditions: in vivo
[30] = test system: HeLa; assay: Induction of apoptosis in human HeLa cells assessed as necrotic cells at 1 uM after 24 hrs by Annexin V-APC/propidium iodide staining-based FACScan flow cytometric analysis (reference value: 1.18%); assay type: functional
[31] = test system: HeLa; assay: Induction of apoptosis in human HeLa cells assessed as late apoptotic cells at 1 uM after 24 hrs by Annexin V-APC/propidium iodide staining-based FACScan flow cytometric analysis (reference value: 7.22%); assay type: functional
[32] = test system: HeLa; assay: Induction of apoptosis in human HeLa cells assessed as late apoptotic cells at 6 uM after 36 hrs by Annexin V-APC/propidium iodide staining-based FACScan flow cytometric analysis (reference value: 3.84%); assay type: functional
[33] = test system: HeLa; assay: Induction of mitochondrial membrane potential loss in human HeLa cells assessed as cells with high membrane potential at 4 uM after 12 hrs by JC-1 staining-based flow cytometric analysis (reference value: 85.8%); assay type: functional
[34] = test system: HeLa; assay: Cell cycle arrest in human HeLa cells assessed as accumulation of cells at G2/M phase at 8 uM after 24 hrs by propidium iodide staining-based FACScan flow cytometric analysis (reference value: 16.82%); assay type: functional
[35] = biological target: [Pyruvate dehydrogenase (acetyl-transferring)] kinase isozyme 1, mitochondrial (Homo sapiens) (UniProt Q15118); assay: Inhibition of PDK1 in human HeLa cells assessed as increase in PDH-E1 alpha expression at 6 uM by Western blot analysis; assay type: cell-based

With `CC(C)=CC[C@@H](OC(=O)CCCC[C@@H]1CCSC(c2ccccc2)S1)C1=CC(=O)c2c(O)ccc(O)c2C1=O` (stereo not given in full) the Activity [1] was 6.4%, the IC50 [2] was 5.37 µM and the viability at 2 µM [3] was 23.6%. The inhibition [4] was “Active”, the Activity [5] was 11.9% and the Activity [6] was “Active”. For the same compound, the inhibition [7] was “Active”, the viability at 1 µM [8] was 37% and the inhibition [9] was “Active”. The Activity [10] was 50.96%, the Activity [11] was “Dose-dependent effect” and the IC50 [12] was 116 µM. For the same compound, the Activity [13] was 10%, the Activity [14] was “Active” and the Activity [15] was 55.2%. The Activity [16] was 30.1%, the Activity [17] was 29.06% and the viability at 4 µM [18] was 18.1%. The Activity [19] was 58.4%, the Activity [20] was 26.1% and the inhibition [21] was “Active”. For the same compound, the “fold change (FC)” value [22] was 5, the inhibition [23] was “Active” and the Activity [24] was 42.1%. The Activity [25] was 25.74%, the Activity [26] was 45.7% and the Activity [27] was “Active”. The Activity [28] was 3.9%, the Activity [29] was “Non-Toxic” and the Activity [30] was 4.46%. It also gave an Activity [31] of 42.7%, an Activity [32] of 22.9% and an Activity [33] of 10.3%. The Activity [34] was 52.44% and the inhibition [35] was “Active”.
